Experiments:
Assay in all cases: relative viability (nuclei count vs DMSO), 5 days (fraction); higher = more cells survive
[1] = compound: COC1=CC=C(C=C1)CN2C=CC3=C2C=C(C=C3)C(=O)NO + N=C(N)NC(=N)NCCc1ccccc1 [Phenformin] (partner 250 µM)
How it was run: (§1)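 Relative viability divides the nuclei count in treated wells by that in vehicle wells. Lung cancer cell lines were seeded in 1536-well plates, dosed by pin tool the next day, and fixed and stained after 5 days in one step with final 0.05% Triton X-100, 1% formaldehyde and 1 ug/ml Hoechst. Dosing was a single drug or a fixed anchor-drug dose plus five library-drug doses (not always all listed) in √10 steps, and values are medians of duplicate plates imaged at 4×.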

Veliparib + Lapatinib = compound: C[C@]1(c2nc3c(C(N)=O)cccc3[nH]2)CCCN1 [Veliparib] + CS(=O)(=O)CCNCc1ccc(-c2ccc3ncnc(Nc4ccc(OCc5cccc(F)c5)c(Cl)c4)c3c2)o1 [Lapatinib] (partner 2 µM)
How it was run: as §1

[2] = compound: COC1=CC=C(C=C1)CN2C=CC3=C2C=C(C=C3)C(=O)NO + O=C(CCCCCCC(=O)Nc1ccccc1)NO [Vorinostat] (partner 1 µM)
How it was run: as §1

Veliparib + Vorinostat = compound: C[C@]1(c2nc3c(C(N)=O)cccc3[nH]2)CCCN1 [Veliparib] + O=C(CCCCCCC(=O)Nc1ccccc1)NO [Vorinostat] (partner 1 µM)
How it was run: as §1

Cell Line	relative viability ([1]; first compound 0.08 µM)	relative viability ([1]; first compound 0.253 µM)	relative viability ([1]; first compound 0.8 µM)	relative viability ([1]; first compound 2.53 µM)	relative viability ([1]; first compound 8 µM)	relative viability (Veliparib + Lapatinib; first compound 0.06325 µM)	relative viability (Veliparib + Lapatinib; first compound 0.2 µM)	relative viability (Veliparib + Lapatinib; first compound 0.6325 µM)	relative viability (Veliparib + Lapatinib; first compound 2 µM)	relative viability ([2]; first compound 0.08 µM)	relative viability ([2]; first compound 0.253 µM)	relative viability ([2]; first compound 0.8 µM)	relative viability ([2]; first compound 2.53 µM)	relative viability ([2]; first compound 8 µM)	relative viability (Veliparib + Vorinostat; first compound 0.02 µM)	relative viability (Veliparib + Vorinostat; first compound 0.06325 µM)	relative viability (Veliparib + Vorinostat; first compound 0.2 µM)	relative viability (Veliparib + Vorinostat; first compound 0.6325 µM)	relative viability (Veliparib + Vorinostat; first compound 2 µM)	relative viability (Veliparib + Lapatinib; first compound 0.02 µM)
NCI-H1650	0.4	0.447	0.422	0.334	0.204	0.702	0.855	0.739	0.718	0.354	0.557	0.595	0.684	0.532	0.57	0.471	0.523	0.627	0.6	
PC-14		0.348	0.667	0.639	0.488	0.367	0.323	0.28	0.315	0.21	0.667	0.725	0.733	0.782		0.622	0.701	0.639	0.64	0.279
COR-L 105	0.383	0.492	0.335	0.34	0.271	0.371	0.327	0.362	0.388	0.489	0.802	0.828	0.815	0.63	1.02	0.823	0.869	0.698	0.813	0.35
LU99A		0.826	0.915	0.875	0.685	0.926	0.585	0.859	0.87		0.504	0.581	0.418	0.352	0.513	0.477	0.396	0.441	0.402	1.03
HCC-78	0.62	0.63	0.718	0.818	0.65	0.837	0.652	0.849	0.566	0.403	0.484	0.431	0.523	0.411	0.5	0.437	0.453	0.44	0.452	0.762
NCI-H358		0.351	0.411	0.314	0.267	0.464	0.503	0.393	0.452		0.721	0.703	0.606	0.528	0.728	0.661	0.877	0.669	0.76	
NCI-H1651	0.349	0.302	0.39	0.325	0.275	0.755	0.92	0.835	0.775	0.52	0.512	0.498	0.464	0.475	0.557	0.551	0.513	0.464	0.504	0.557
LOU-NH91	0.612	0.678	0.702	0.766	0.637	0.656	0.82	0.735	0.781		0.953	0.906	0.963	0.884	0.846	0.842	0.919	0.822	0.945	0.708
NCI-H1395	0.37	0.463	0.469	0.407	0.413	0.76	0.874	0.716	0.83		0.634	0.816	0.84	0.574	0.432	0.485	0.648	0.638	0.499	
COR-L23	0.369	0.441	0.437	0.447	0.422	0.81	0.802	0.982	0.978	0.273	0.456	0.455	0.518	0.502	0.604	0.353	0.408	0.445	0.354	0.795
NCI-H650	0.468	0.45	0.488	0.458	0.399	0.827	0.816	0.932	0.501	0.337	0.414	0.437	0.477	0.34	0.29	0.333	0.397	0.457	0.432	0.82
NCI-H1793		0.457	0.438	0.414	0.368	0.555	0.788	0.572	0.762		0.832	0.801	0.816	0.759	0.654	0.697	0.58	0.807	0.722	0.548
201T	0.487	0.466	0.453	0.431	0.35	1.03	1.04	1.05	0.995	0.813	0.952	0.967	0.986	0.868	0.922	0.954	0.929	1.16	0.928	1
LK-2		0.462	0.579	0.396	0.24	0.814	1.11	0.877	0.643	0.172	0.291	0.282	0.308	0.221	0.223	0.284	0.319	0.258	0.29	0.637
A-427		0.344	0.357	0.314	0.235	1	0.994	1.04	0.802	0.694		0.826	0.847	0.794	0.813	0.867	0.867	0.842	0.934	1.11
LCLC-97TM1	0.176	0.399	0.441	0.46	0.353	0.828	1.45		1.22		0.659	0.772	0.557	0.438	0.455	0.797	0.849	0.632	0.637	0.734
HOP-62	0.583	0.658	0.696	0.643	0.623	0.878	0.951	0.99	1.12	0.39	0.666	0.528	0.748	0.531	0.557	0.527	0.593	0.539	0.68	1.14
